From US20070243548A1, “Calumenin-directed diagnostics and therapeutics for cancer and chemotherapeutic drug resistance” (priority 2006, published 2007) come the findings set out here.

Format in all cases: cell-based, human
For data set [1], the system named is MCF-7 cells. The experiment in a line: cells. As for the experimental part: For a typical siRNA transfection, […] of the annealed siRNA duplex was mixed with 1.4 ml of Opti-MEM reagent (Invitrogen). In another tube, […] of Oligofectamine reagent (Invitrogen, Carlsbad, Calif.) was mixed with […] of Opti-MEM. The two solutions were combined and mixed gently by inversion and incubated for 20 min. at RT. The resulting solution was added to the cultured cells drop by drop in a 10 cm dish (cells are approximately 40-50% confluent). The next day the transfected cells were trypsinized and seeded in 6 or 96-well plates and further incubated for the indicated amount of time (assay dependent) before further analysis.
Cell survival was determined using the MTT cytotoxicity assay (see, e.g., Tokuyama et al. (2005) Anticancer Res. 25(1A): 17-22). Small interfering RNA transfected cells were seeded in triplicate into 96-well plates at 5×10^3 cells/well 48 hrs post-transfection. The cells were incubated for an additional 16 to 24 hrs before they were exposed to increasing concentrations of cytotoxic drugs. Doxorubicin (adriamycin), cisplatin, taxol, vinblastine, vincristine, and mitoxantrone were all purchased from Sigma Corp. (St. Louis, Mo.). Stocks were made as follows: 6 mM for doxorubicin, 1.1 mM for vincristine and vinblastine; 1.1 mM for taxol, 50 mM for cisplatin both in DMSO; and 0.97 mM mitoxantrone in ethanol. Appropriate dilutions were made in the respective media for each cell line. Following addition of drugs, incubation was continued for an additional 72 hrs. […] of MTT dye (5 mg/ml) were added into each well and the plate was further incubated at 37° C. for 4 hrs. The dye was solubilized with 10% Triton X-100, 0.01 N HCl and further incubated at 37° C. in the dark for 30 min. Cell viability was determined by measure of absorption at 570 nm in a Wallac multiwell plate reader (PerkinElmer, Inc., Boston, Mass.). The averages of triplicate wells were plotted using the Prism software (GraphPad Software, Inc., San Diego, Calif.).

In a further data set the test system is calumenin. The experiment in a line: Immunoblot of calumenin expression after siRNA transfection of MCF-7 cells. Conditions: compared to mock and control siRNA, FIG. 2. An excerpt: To establish the importance of calumenin to the expression of the drug-resistant phenotype in MCF-7 cell lines, calumenin expression was silenced using RNAi. Briefly, the following siRNA duplexes targeting the human calumenin mRNA were designed and purchased either from Ambion (Austin, Tex.) or Invitrogen (Carlsbad, Calif.). The siRNA duplex sequences corresponding to nucleotides […] (REFSEQ ID NUMBER: NM_001428) targeting the start of the calumenin mRNA transcript were:
For a typical siRNA transfection, […] of the annealed siRNA duplex was mixed with 1.4 ml of Opti-MEM reagent (Invitrogen). In another tube, […] of Oligofectamine reagent (Invitrogen, Carlsbad, Calif.) was mixed with […] of Opti-MEM. The two solutions were combined and mixed gently by inversion and incubated for 20 min. at RT. […]
To determine the ability of cells to proliferate after they were transfected with […] or control siRNAs as indicated above, the cells were seeded the next day in a 96-well plate at 5×10^3 cells/well in quadruplicate. […] The resulting fluorescence was measured in a Wallac microplate reader (PerkinElmer, Inc., Boston, Mass.) using a 535 nm filter. […] The number of cells was determined by extrapolation from a standard curve.

The test system of data set [2] is MCF-7 cells. The experiment in a line: Apoptosis assay (Annexin V staining). To be noted: FIG. 4. The protocol: This assay was performed to determine the number of cells that were susceptible to chemotherapeutic drugs following incubation with siRNAs. Cells transfected with siRNA were seeded in Lab-Tek 16-well chamber slides (Electron Microscopy Sciences, Hatfield, Pa.) at 10^4 cells/well 48 hrs post-transfection. Apoptosis was determined 16 hours later by annexin-V staining using the Annexin-V FLUOS kit (Roche, Ltd., Basel, CH) following the manufacturer's instructions. Slides were observed under a fluorescence microscope and images were taken using an Olympus digital camera and the Q-Capture software (QImaging, Burnaby, BC, CA).

For data set [3], the system named is MCF-7 cells. Kind of data set: Phase contrast viability assay (cell morphology). To be noted: calumenin-depleted MCF-7 cells; FIG. 3.

For “Calumenin siRNA: siRNA duplex targeting human calumenin mRNA; sense 5′-GAAGGACCGUGUACAUCAU-3′ (SEQ ID NO: 1), anti-sense 5′-AUGAUGUACACGGUCCUUC-3′ (SEQ ID NO: 2), 3′TT overhangs (3' TT overhangs on both strands, further chemistry not given here)”, the “decrease in cell viability of MCF-7 cells” value in the data set with MCF-7 cells [1] is given as 48%. Also, the calumenin expression entry in the data set with calumenin is listed as “significantly decreased”. Also, the “number of Annexin-V-positive cells” value in the data set with MCF-7 cells [2] (compared to cell population treated with control siRNA) is on record as “substantially greater number”. Also, in the data set with MCF-7 cells [2] (compared to cells treated with siGLO control siRNA), the cell survival result was “decreased”. The cell morphology result with MCF-7 cells [3] is reported as “more rounded cell morphology”.
